Legend:
Assay type in all cases: cell-based
[1] = tested on: steroid/thyroid receptors; test: cDNA microarray, TGFβ1-induced down-regulation of steroid/thyroid receptors in human lung fibroblasts; conditions: 5 ng/ml TGFβ1
Experimental: Human lung fibroblasts (Cambrex Bio Science) from a person were seeded at 4×10^5 cells (passage 4) in 100 mm dishes and cultured in complete FGM medium (Cambrex Bio Science). The next day, medium was changed to FGM without serum or fibroblast growth factor, but supplemented with 0.2% bovine serum albumin and 50 μg/m; Vitamin C. Cells were serum deprived for 24 hours prior to treating with 5 ng/ml TGFβ1 (R&D Systems) in the presence or absence of 400 nM Compound No. 79. Induction with TGFβ was carried out for various times (7.5 hours, 24 hours, and 3 days) after which RNA was harvested by lysing the cells in RLT buffer (Qiagen) and frozen at −80° C.
(§1) Gene expression profiles were determined from cDNA microarrays containing approximately 9000 elements derived from clones isolated from normalized cDNA libraries or purchased from ResGen (Invitrogen Life Technologies, Carlsbad, Calif.). […]
(§2) Total RNA was extracted from cells using Qiagen's RNeasy kit. […] Hybridization of each fluorophore was quantified using an Axon GenePix 4000A scanner.
Differential expression values were expressed as the ratio of the median of background-subtracted fluorescent intensity of the experimental RNA to the median of background-subtracted fluorescent intensity of the control RNA. For ratios greater than or equal to 1.0, the ratio was expressed as a positive value. […]

[2] = tested on: glucocorticoid receptor; test: cDNA microarray, TGFβ1-induced down-regulation of glucocorticoid receptor in normal rat kidney cells (NRK); conditions: 5 ng/ml huTGF-b1, 24 hours
Experimental: Normal rat kidney cells (NRK) were cultured in DMEM-21 (high glucose)/10% FCS at 37° C., 5% CO2. Cells were serum starved for 24 hr before treated with 5 ng/ml huTGF-b1 (R&D System) or co-treatment with 1 μM Compound No. 81 or 0.1 μM Compound No. 74 for 24 hours.
Gene expression profiles were determined from cDNA microarrays containing approximately 9000 elements derived from clones isolated from normalized cDNA libraries or purchased from ResGen (Invitrogen Life Technologies, Carlsbad, Calif.). DNA for spotting was generated by PCR amplification using 5′amino-modified primers (BD Biosciences Clontech, Palo Alto, Calif.) derived from flanking vector sequences. […]
as §2
(§3) Differential expression values were expressed as the ratio of the median of background-subtracted fluorescent intensity of the experimental RNA to the median of background-subtracted fluorescent intensity of the control RNA. For ratios greater than or equal to 1.0, the ratio was expressed as a positive value. For ratios less than 1.0, the ratio was expressed as the negative reciprocal (i.e., a ratio of 0.5=−2.0). […] Differential expression ratios were determined as the mean of the two values from dye-swapped duplicates. […]

[3] = tested on: glucocorticoid receptor; test: cDNA microarray, TGFβ1-induced down-regulation of glucocorticoid receptor in rat lung fibroblasts (RLF); conditions: 15 ng/ml TGFβ1, 24 hours
Experimental: Rat lung fibroblasts (RLF) were isolated from perfused rat lung by physical and enzymatic dissociation of lung tissue. […] RLFs were cultured in FGM-2 with 2% FBS (Clonetics # CC-3132). Cells were serum starved for 24 hours, followed by the treatment with 15 ng/ml TGFβ1 (R&D System) or co-treatment with 1 μM Compound No. 81 or 0.1 μM Compound No. 74 for 24 hours.
as §1, §2, §3

- expression of seven members of the steroid nuclear receptor family, including glucocorticoid receptor and retinoid receptor C alpha [1]: down-regulates
- down-regulation of glucocorticoid receptor expression at the transcriptional level [3]: 2 fold
Substance: TGF-β1: huTGF-b1 (R&D System), transforming growth factor-beta 1, used to induce receptor down-regulation
- down-regulation of glucocorticoid receptor expression at the transcriptional level [2]: 2 fold

— US20040138188A1, “Use of TGF-beta inhibitors to counteract pathologic changes in the level or function of steroid/thyroid receptors” (priority 2002, published 2004)
